This is an account of results in patent US20190076456A1, “COMPOSITIONS AND METHODS FOR LIVER DISEASES” (priority 2017, published 2019).

For data set [1] the following is noted: cited from earlier work.
For a further data set, the system named is alcohol hangover. As to the kind of experiment: Nasal spray administration to a human subject with alcohol hangover. The settings on record: 50 mg NAD+ per administration, three times in a day. In kind it is in vivo. As to the method:
A subject, who is […] and suffers from alcohol hangover was administered by nasal spray a composition of invention (with a dosage of 50 mg NAD+ per administration) three times in a day.

Where two headings read alike, the source gives them in different places.

For `NC(=O)c1ccc[n+]([C@@H]2O[C@H](COP(=O)([O-])OP(=O)(O)OC[C@H]3O[C@@H](n4cnc5c(N)ncnc54)[C@H](O)[C@@H]3O)[C@@H](O)[C@H]2O)c1` [NAD+, nicotinamide adenine dinucleotide], the stability of solution entry was “stable for about a week” in data set [1] (4° C. and neutral pH); “decompose rapidly” in data set [1] (in acids or alkalis). The “symptoms of alcohol hangover” value in the data set with alcohol hangover is given as “Significant improvement”.
